The record followed here is ChEMBL document CHEMBL4627312, “Anilinopyrazines as potential mitochondrial uncouplers” (Bioorg Med Chem Lett, 2020).

Structures are written as SMILES. Calls of active or inactive are those of the source. The calls are words filed in the database; no cut-off is given here.

Assay [1] deals with L6. Description: Induction of mitochondrial uncoupling in rat L6 cells assessed as oxygen consumption rate measured after 45 to 90 mins by seahorse XFe96 analyser based assay relative to control. The conditions noted are these: Mitochondria.
Assay [2] deals with L6. Kind of assay: Induction of mitochondrial uncoupling in rat L6 cells assessed as oxygen consumption rate at 0.01 to 50 uM measured after 45 to 90 mins by seahorse XFe96 analyser based assay. The conditions noted are these: Mitochondria.
A short description of assay [3]: Induction of mitochondrial uncoupling in rat L6 cells assessed as oxygen consumption rate measured after 45 to 90 mins by seahorse XFe96 analyser based assay. The assay is classed as mitochondria, Mitochondria.

On to `Fc1cccc(Nc2nccnc2Nc2cccc(F)c2)c1`, for which the Emax in assay [1] worked out at 106%. Also, the outcome in assay [2] was inactive.

As to `FC(F)(F)Oc1ccc(Nc2cncc(Nc3ccc(OC(F)(F)F)cc3)n2)cc1`, in assay [1], the Emax worked out at 107%. For the same molecule, the outcome in assay [2] was inactive.

Regarding `Fc1ccccc1Nc1nc(Nc2ccccc2F)nc(Nc2ccccc2F)n1`, in assay [1], the maximum response (Emax) worked out at 102%. The result in assay [2] was inactive.

For the molecule `Fc1ccc(Nc2nccnc2Nc2ccc(F)cc2F)c(F)c1`, in assay [1], the Emax was 109%. In addition, the outcome in assay [2] was inactive.

Turning to `FC(F)(F)c1cc(Nc2nccnc2Nc2cc(C(F)(F)F)cc(C(F)(F)F)c2)cc(C(F)(F)F)c1`, the half-maximal effective concentration (EC50) in assay [3] was 17 µM. Also, in assay [1], the maximum response (Emax) came out at 148%.

On to `COc1ccc(Nc2nc(Nc3ccc(OC)cc3)nc(Nc3ccc(OC)cc3)n2)cc1`, for which the Emax in assay [1] is 104%. In addition, the outcome in assay [2] was inactive.

Regarding `FC(F)(F)c1ccc(Nc2cncc(Nc3ccc(C(F)(F)F)cc3)n2)cc1`, the maximal response (Emax) in assay [1] was determined as 103%. The outcome in assay [2] was inactive.

For `FC(F)(F)Oc1cccc(Nc2cnc(Nc3cccc(OC(F)(F)F)c3)cn2)c1`, the Emax in assay [1] came to 101%. Besides, the result in assay [2] was inactive.

For the molecule `FC(F)(F)Oc1ccccc1Nc1nccnc1Nc1ccccc1OC(F)(F)F`, the Emax in assay [1] amounted to 114%. Moreover, in assay [2], the result was inactive.

As to `COc1ccccc1Nc1nccnc1Nc1ccccc1OC`, the maximal effect (Emax) in assay [1] was found to be 102%.

On to `FC(F)(F)c1ccccc1Nc1nccnc1Nc1ccccc1C(F)(F)F`, for which, in assay [1], the Emax was 104%.

As to `FC(F)(F)c1ccc(Nc2nc(Nc3ccc(C(F)(F)F)cc3)nc(Nc3ccc(C(F)(F)F)cc3)n2)cc1`, in assay [1], the Emax turned out to be 100%. Also, the result in assay [2] was inactive.

Turning to `Fc1ccc(C(F)(F)F)cc1Nc1nccnc1Nc1cc(C(F)(F)F)ccc1F`, in assay [1], the Emax stood at 100%.

In the case of `Fc1cccc(Nc2nccnc2Nc2cccc(F)c2F)c1F`, the Emax in assay [1] turned out to be 108%. The result in assay [2] was inactive.

As to `Fc1cc(C(F)(F)F)ccc1Nc1nccnc1Nc1ccc(C(F)(F)F)cc1F`, in assay [3], the EC50 was 8.5 µM. Besides, the Emax in assay [1] was 164%.

In the case of `FC(F)(F)c1ccc(Nc2nccnc2Nc2ccc(C(F)(F)F)cc2)cc1`, the 50% effective concentration (EC50) in assay [3] was 2.5 µM. Moreover, in assay [1], the Emax came out at 260%.

Take `COc1ccccc1Nc1nc(Nc2ccccc2OC)nc(Nc2ccccc2OC)n1`: in assay [1], the Emax came to 103%. In addition, the result in assay [2] was inactive.

For the molecule `COc1cccc(Nc2nc(Nc3cccc(OC)c3)nc(Nc3cccc(OC)c3)n2)c1`, the maximal effect (Emax) in assay [1] stood at 103%. Moreover, the result in assay [2] was inactive.

Consider `FC(F)(F)Oc1cccc(Nc2nccnc2Nc2cccc(OC(F)(F)F)c2)c1`, for which, in assay [3], the EC50 worked out at 12 µM. In assay [1], the Emax stood at 343%.

As for `FC(F)(F)Oc1ccc(Nc2cnc(Nc3ccc(OC(F)(F)F)cc3)cn2)cc1`, the maximal response (Emax) in assay [1] amounted to 102%. Besides, in assay [2], the result was inactive.

For the molecule `FC(F)(F)c1cccc(Nc2nccnc2Nc2cccc(C(F)(F)F)c2)c1`, in assay [3], the concentration giving a half-maximal response (EC50) amounted to 3 µM. In assay [1], the Emax came to 181%.

In the case of `FC(F)(F)Oc1cccc(Nc2cncc(Nc3cccc(OC(F)(F)F)c3)n2)c1`, the Emax in assay [1] turned out to be 105%. Moreover, in assay [2], the result was inactive.

With `FC(F)(F)Oc1ccc(Nc2nccnc2Nc2ccc(OC(F)(F)F)cc2)cc1`, the 50% effective concentration (EC50) in assay [3] was 5.9 µM. In addition, the maximal effect (Emax) in assay [1] was 258%.

As for `FC(F)(F)c1cccc(Nc2nc(Nc3cccc(C(F)(F)F)c3)nc(Nc3cccc(C(F)(F)F)c3)n2)c1`, the Emax in assay [1] amounted to 103%. Further, the result in assay [2] was inactive.

Regarding `FC(F)(F)c1ccc(Nc2cnc(Nc3ccc(C(F)(F)F)cc3)cn2)cc1`, the maximal response (Emax) in assay [1] was found to be 107%. Further, the outcome in assay [2] was inactive.

For the molecule `COc1cccc(Nc2nccnc2Nc2cccc(OC)c2)c1`, the Emax in assay [1] amounted to 101%.

In the case of `FC(F)(F)c1cc(Nc2cncc(Nc3cc(C(F)(F)F)cc(C(F)(F)F)c3)n2)cc(C(F)(F)F)c1`, the Emax in assay [1] turned out to be 105%. The result in assay [2] was inactive.

As for `Fc1ccc(Nc2nccnc2Nc2ccc(F)cc2)cc1`, in assay [1], the maximal effect (Emax) came to 101%. Further, in assay [2], the outcome was inactive.

With `FC(F)(F)c1cccc(Nc2cnc(Nc3cccc(C(F)(F)F)c3)cn2)c1`, the maximal response (Emax) in assay [1] is 140%. In addition, the outcome in assay [2] was inactive.
